Source: PMC10313368 (The Journal of Clinical Investigation, 2023)
“And” between values parts separate entries of the source, which are not always exact repeats. Equal values may be shown once.

Legend:
[1] = system: STZ-induced diabetic mice; assay: Vascular permeability by Evans blue tracer method in STZ mice; type: in vivo, mouse; details: single intraocular injection 70 ng 32-134D
Procedure: (§1) STZ-induced diabetes mouse model. 8-to-10 week-old male mice received an IP injection of STZ at 40 mg/kg of body weight in 0.1M of citrate buffer (pH 4.5) for 5 consecutive days. Normal chow and 10% sucrose water were provided during this period. 10% sucrose was discontinued and replaced with regular water on experimental day 6. […]
Intraocular injections. Intravitreal injections were performed with a PLI-100A Pico-liter Microinjector (Warner Instruments, Harvard Bioscience) using pulled-glass micropipettes. Each micropipette was calibrated to deliver a 1 μl volume on depression of a foot switch. […]
Images were captured with Zeiss fluorescent microscope. Eight fields per eye (2 fields per petal) including area of neovascularization were selected and fluorescence intensity was measured by ImageJ software. […]
The eyes were enucleated and immediately immersed in 4% (wt/vol) paraformaldehyde for 2 hours at room temperature. […] Images were captured by Zeiss fluorescent microscope or confocal microscopy and fluorescence was quantified by the image J software (National Institutes […]
of Health, Bethesda, MD). Blinded quantification of the number of leaking vessels was performed by manual counting of major leakage from capillaries from retinas of each group. […] Random fields were chosen from retinas where leakages were absent to determine baseline fluorescence that arise from capillaries. […]

[2] = system: HIF-regulated vasoactive mediators; assay: mRNA expression of HIF-regulated vasoactive mediators in retina of STZ-induced diabetic mice (qPCR); type: in vivo, mouse; details: STZ mice, replicates; for Angptl4 mRNA / Vegfa mRNA: S Figure 3B; for Angpt2 mRNA / Ptprb mRNA: S Figure 3C
Procedure: Reverse transcription and quantitative real-time PCR. Total RNA was isolated from cultured cells or retinas with PureLinkTM RNA Mini Kit (Invitrogen #12183025), and cDNA was prepared with MuLV Reverse Transcriptase (Applied Biosystems). Quantitative real-time PCR was performed with Power SYBR Green PCR Master Mix (Applied Biosystems) and MyiQ Real-Time PCR Detection System (Bio-Rad). Normalization was done using cyclophilin A for mouse tissue and human cell lines. Primers are listed in Supplemental Table 2. […]
as §1, with “6. Blood glucose was measured on experimental day 28 after 16 hours fasting and mice with blood glucose level > 250 mg/dL were considered” for “6.”
Intraperitoneal (IP) injections. […]

Brc1ccc2c(-c3csc(-c4c[nH]c5c(Br)cccc45)n3)c[nH]c2c1 [32-134D, 4-(6-bromo-1H-indol-3-yl)-2-(7-bromo-1H-indol-3-yl)thiazole]
vascular hyperpermeability in STZ mice (in words) [1]: effectively inhibited vascular hyperpermeability
Angptl4 mRNA ([2]; 40mg/kg i.p., 40 mg/kg): 0.6634 and 0.674 and 0.6653
Vegfa mRNA ([2]; 40mg/kg i.p., 40 mg/kg): 1.885 and 1.498 and 1.761
Angptl4 mRNA ([2]; 80mg/kg i.p., 80 mg/kg): 0.5186 and 0.5762 and 0.6276
Vegfa mRNA ([2]; 80mg/kg i.p., 80 mg/kg): 1.453 and 1.442 and 1.52
Angpt2 mRNA ([2]; 40mg/kg i.p., 40 mg/kg): 0.559 and 0.5248 and 0.5704
Ptprb mRNA ([2]; 40mg/kg i.p., 40 mg/kg): 0.7022 and 0.6022 and 0.6973
Angpt2 mRNA ([2]; 80mg/kg i.p., 80 mg/kg): 0.5647 and 0.5575 and 0.5047
Ptprb mRNA ([2]; 80mg/kg i.p., 80 mg/kg): 0.8502 and 0.8904 and 0.75
